Results: patent publication US20210196737A1, “USE OF TREZASTILBENOSIDE IN MANUFACTURE OF PRODUCT FOR TREATING AND/OR PREVENTING NON-ALCOHOLIC FATTY LIVER DISEASE” (KPC PHARMACEUTICALS, INC., priority 2019, published 2021)

Experiments:
[1] = test system: non-alcoholic fatty liver disease (NAFLD) model mice; assay: TC and TG content in liver tissue of NAFLD model mice; type: in vivo, C57BL/6 mice
From the text: (§1) After 1 week of adaptive feeding, 44 C57 mice were divided into a control group (12 mice) and a model group (32 mice) according to the random number method. The normal control group was given ordinary diet, and the model group was given high-sugar and high-fat diet. After feeding for 8 weeks, randomly select 2 animals in each of the control group and the model group. After pathological examination confirmed that the modeling was successful, the model animals were divided into groups.
(§2) The model animals were divided according to random number method into 3 groups of 10 mice each, namely model control group (equal volume of sodium chloride injection solution), Trezastilbenoside high dose group (20 mg/kg) and Trezastilbenoside low dose group (10 mg/kg). The mice in each administration group were administered intragastrically with the corresponding drug, once a day continuously for 4 weeks, while being fed with the high-sugar and high-fat feed continuously. The mice in the normal control group (equal volume of sodium chloride injection solution) were feed with the ordinary feed.
About 100 mg of liver tissue weighed, was put into 900 μL absolute ethanol to make a 10% tissue homogenate under an ice bath. Then the supernatant was separated out through a centrifugation separation at 3000 r/min for 15 min, and collected into a 1.5 mL centrifuge tube for the measurement of TC and TG content in the liver tissue.

[2] = test system: non-alcoholic fatty liver disease (NAFLD) model mice; assay: Gross observation and HE staining of liver of NAFLD model mice; type: in vivo, C57BL/6 mice
From the text: as §1, §2
The fresh liver tissue was immersed and fixed in 4% formaldehyde solution overnight for 24 h, dehydrated through 75%-95%-100% ethanol gradient, embedded in paraffin, sectioned into 4 μm, and conventionally stained with hematoxylin-eosin, to observe the pathological changes of the liver tissue under an optical microscope (HE, 200×).

[3] = test system: non-alcoholic fatty liver disease (NAFLD) model mice; assay: Levels of serum TC, TG, HDL, LDL, AST and ALT in NAFLD model mice; type: in vivo, C57BL/6 mice; details: x ± s, n=10
From the text: as §1, §2
About 1 mL of blood, taken via mouse eyeballs, was placed into a 1.5 mL centrifuge tube, and then centrifuged at 3000 r/min for 10 min to obtain the supernatant. The levels of TC, TG, HDL, LDL, AST and ALT in the serum were measured with a microplate reader strictly under the operating instructions of the assay kit.

[4] = safety research mentioned in background; cited from earlier work
[5] = safety research mentioned in background; cited from earlier work; remark: listed apart in the source
[6] = test system: non-alcoholic fatty liver disease (NAFLD) model mice; assay: Body weight, wet liver weight and liver index in high-sugar high-fat diet NAFLD model mice; type: in vivo, C57BL/6 mice; details: for Weight: high-sugar high-fat feed; for Weight / Wet liver weight: mean ± s, n=10
From the text: as §1, §2
After the last administration, the mice were fasted but had access to water for 12 h, and then sacrificed after blood was taken. The body mass and liver mass of each mouse were weighed to calculate the liver index by the following formula.
liver index=(liver wet mass/body mass)×100% (wet liver mass/body mass).

[7] = high dose 20 mg/kg intragastric 4 weeks
[8] = low dose 10 mg/kg intragastric 4 weeks
[9] = HE, 200x, Trezastilbenoside group
[10] = high dose 20 mg/kg intragastric once a day for 4 weeks
[11] = low dose 10 mg/kg intragastric once a day for 4 weeks

Compound: OC[C@H]1O[C@@H](Oc2cc(/C=C/c3cc(O)cc(O)c3)ccc2O)[C@H](O)[C@@H](O)[C@@H]1O [Trezastilbenoside]
- TC [1, 7]: 4.23 ± 0.87 mg/g
- TG [1, 7]: 1.96 ± 0.99 mg/g
- TC [1, 8]: 6.53 ± 0.59 mg/g
- TG [1, 8]: 2.12 ± 0.58 mg/g
- HE observation of mouse liver: fat droplets and pathological morphology, compared with the model group [2, 9]: smaller and fewer, the pathological morphology of liver tissue was significantly improved
- HE observation of mouse liver: infiltration of inflammatory cells [2, 9]: the infiltration of inflammatory cells was not obvious
- Gross observation of mouse liver: colour, texture and shape ([2]; low and high dose groups (10 and 20 mg/kg)): between the normal control group and the model group, and the texture and shape tended to be normal
- ALT (U/L) [3, 7]: 78.30 ± 11.53 U/L
- AST (U/L) [3, 7]: 118.92 ± 10.75 U/L
- HDL [3, 7]: 0.45 ± 0.16 mmol/L
- LDL [3, 7]: 0.41 ± 0.30 mmol/L
- TC [3, 7]: 3.43 ± 0.17 mmol/L
- TG [3, 7]: 0.99 ± 0.11 mmol/L
- ALT (U/L) [3, 8]: 122.45 ± 27.37 U/L
- AST (U/L) [3, 8]: 147.73 ± 52.98 U/L
- HDL [3, 8]: 0.27 ± 0.67 mmol/L
- LDL [3, 8]: 0.47 ± 0.13 mmol/L
- TC [3, 8]: 5.53 ± 0.52 mmol/L
- TG [3, 8]: 2.67 ± 0.19 mmol/L
- Chromosome aberrations or mutagenesis in the genetic test [4]: no chromosome aberrations or mutagenesis were found
- Toxic side reactions and death in acute toxicity tests [5]: no toxic side reactions and death occurred
- Obesity induced by high sugar and high fat, compared with the model group ([6]; Trezastilbenoside administration group, 4 weeks intragastric): has a tendency to reduce the obesity induced by high sugar and high fat in mice
- Weight [6, 10]: 33.8 ± 0.74 g
- Liver index (%) ([6]; high dose 20 mg/kg intragastric once a day for 4 weeks, liver wet mass/body mass x 100%): 0.51 ± 0.05 %
- Wet liver weight [6, 10]: 1.72 ± 2.7 g
- Weight [6, 11]: 35.0 ± 0.62 g
- Wet liver weight [6, 11]: 1.84 ± 3.0 g
